Patent publication US20220133894A1, “BISPHOSPHONATE-LINKED COMPOUNDS” (OREGON HEALTH & SCIENCE UNIVERSITY, priority 2019, published 2022)

System: RAW 267.4 cells
Experiment: Osteo Assay pit formation, osteoclast-mediated bone degradation
Type: cell-based, mouse
Description: FIG. 4 represents the KBU2046 inhibition of osteoclast function. FIG. 4A compares effects on Raf1 activation. RAW 267.4 cells were treated with RANKL for 4 days, treated with 10 μM KBU2046 for the indicated time periods, and Western blot for the denoted proteins performed. (B) Effects on cell morphology. RAW 267.4 cells were treated with RANKL and with KBU2046 for 4 days, or not, and denoted, and stained for actin (green) and DAPI (blue); white arrow denotes an actin ring, yellow arrow a resorptive cavity. Representative immunofluorescent images are depicted. (C) Tartrate resistant acid phosphatase (TRAP) expression. […] RAW 267.4 cells were plated onto Osteo Assay plates, treated with RANKL for 6 days and with KBU2046 (or vehicle for controls) as indicated and bone surface area quantified. Data are the mean±SEM (N=3 replicates) of bone surface area, expressed as the percentage of control cells; * denotes P<0.05 compared to control.
To determine whether KBU2046 inhibits osteoclast-mediated bone degradation, we used Corning Osteo Assay Surface plates, which are coated with calcium-phosphate-based bone mineral. This platform supports osteoclast growth, allowing for the quantitative measurement of bone degradation, and has previously been used to measure bisphosphonate-mediated inhibition of bone degradation (40). […]

## O=C1c2ccccc2OCC1c1ccc(F)cc1 (centres unmarked) [KBU2046, 3-(4-fluorophenyl)chroman-4-one]
10 μmol/L KBU2046, RANKL, 6 days
  increase of bone surface area compared with control (mean±SEM): 28%±1.4%
Plates pre-treated with ZA at 2, 10 and 20 μM, KBU2046 10 μM
  bone surface area: significantly increased
